# Read-outs that look alike come from different tables or passages of the source.
# Columns and labels:
# axillary malodor = assay: topical treatment of axillary malodor on the skin; format: in vivo, human; conditions: for effect against axillary malodors: topical application to armpits, applicants' own experiments; for outcome of treatment of repeated infections: overnight
# Description: Non-prescription azoles sold in groceries are intended for treating feet or vaginal fungal infections. Essentially the same compositions are often sold for feet and vaginal applications under different labels and in different forms. For axillary use, we strongly prefer them as creams.
# In our experiments, we treated the armpits, then switched to all new underwear, and rigorously sterilized it with chlorine-based bleaches after every use. […]
# A person, low perspiration, axillary malodor since puberty. […] Now uses peroxide bleach all the time.
# [1] = in vivo
# Description: (§1) Undecylenic acid, salicylic acid and peroxides suffer from certain disadvantages.
# [2] = skin tolerability on armpit application
# Description: as §1
smiles,measurement,setting,value
CN(C/C=C/C#CC(C)(C)C)Cc1cccc2ccccc12 [Terbinafine],effect against axillary malodors,axillary malodor,some effect
C=CCCCCCCCCC(=O)O [Undecylenic acid],effect against axillary malodors,axillary malodor,functional
same,adverse skin effects,[1],"may cause pain, burning and irritations"
O=C(OOC(=O)c1ccccc1)c1ccccc1 [benzoyl peroxide],effect against axillary malodors,axillary malodor,functional
Clc1ccccc1C(c1ccccc1)(c1ccccc1)n1ccnc1 [clotrimazole],time at which the odor disappears,"axillary malodor; mature axillary malodor, cream two times a day, two weeks treatment",between the fourth and the seventh day
OO [hydrogen peroxide],effect against axillary malodors,axillary malodor,functional
Clc1ccc(COC(Cn2ccnc2)c2ccc(Cl)cc2Cl)c(Cl)c1 (stereo not shown) [miconazole],outcome of treatment of repeated infections,"axillary malodor; person, two times in a row",cured
same,outcome of first treatment of axillary malodor,"axillary malodor; person, two applications per day, seven days in a row",Successfully treated
O=C(O)c1ccccc1O [salicylic acid],effect against axillary malodors,axillary malodor,functional
same,adverse skin effects,[2],"may cause pain, burning and irritations"
Clc1ccc(C(Cn2ccnc2)OCc2ccsc2Cl)c(Cl)c1 (stereo not shown) [tioconazole],outcome of treatment of repeated infections,"axillary malodor; person, one-time treatment",cured
same,effectiveness compared with clotrimazole,"axillary malodor; vaginal tioconazole product, topical on armpits",much more effective than clotrimazole
Cc1cccc(N(C)C(=S)Oc2ccc3ccccc3c2)c1 [tolnaftate],effect against axillary malodors,axillary malodor,some effect
